Test results as given in US12091425B2 (AMGEN INC., priority 2016, dated 2024).

What follows are compounds tested against T1, Mcl-1/Bim interaction, recombinant human Mcl-1 (171-327) (Homo sapiens, UniProt Q07820) (assay: Cell free Mcl-1: Bim Affinity Assay (Mcl-1 HTRF)). Conditions: TR-FRET, 0.1 nM Mcl-1 (171-327), 0.05 nM biotin-Bim (51-76).
T1 construct: made in house
Assay type: binding
In short: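 TR-FRET competition assay with biotinylated human Bim peptide (residues 51-76); reaction plates incubated overnight before reading. IC50 values came from duplicate data fitted to a four-parameter sigmoidal competition curve.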

T1 sequence (Q07820 171-327): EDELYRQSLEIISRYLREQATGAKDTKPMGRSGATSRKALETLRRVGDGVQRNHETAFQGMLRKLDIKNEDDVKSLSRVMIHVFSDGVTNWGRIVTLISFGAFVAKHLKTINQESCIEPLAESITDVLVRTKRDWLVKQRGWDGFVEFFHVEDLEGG

Compound | IC50
O=C1NS(=O)(=O)[C@H](C(F)(F)F)CCCC[C@H](O)[C@@H]2CC[C@H]2CN2C[C@@]3(CCCc4cc(Cl)ccc43)COc3ccc1cc32 (single isomer, unassigned) [Example 432] | 0.996 nM
CC[C@@H]1CC/C=C/[C@@H](NC(=O)C(C)C)[C@@H]2CC[C@H]2CN2C[C@@]3(CCCc4cc(Cl)ccc43)COc3ccc(cc32)C(=O)NS1(=O)=O [Example 1081] | 0.947 nM
CCOC[C@H]1CC/C=C/[C@H](O)[C@@H]2CC[C@H]2CN2C[C@@]3(CCCc4cc(Cl)ccc43)COc3ccc(cc32)C(=O)NS1(=O)=O (single isomer, unassigned) [Example 440] | 2.44 nM

Now from value to compound:

IC50 | Compound
2.14 nM | CC[C@@H]1CC/C=C/[C@H](OCC(=O)N2CCC(F)(F)CC2)[C@@H]2CC[C@H]2CN2C[C@@]3(CCCc4cc(Cl)ccc43)COc3ccc(cc32)C(=O)NS1(=O)=O [Example 998, (1S,3′R,6′R,7′S,8′E,12′R)-6-chloro-7′-(2-(4,4-difluoro-1-piperidinyl)-2-oxoethoxy)-12′-ethyl-3,4-dihydro-2H,15′H-spiro[naphthalene-1,22′-[20]oxa[13]thia[1,14]diazatetracyclo[14.7.2.0^3,6.0^19,24]pentacosa [8,16,18,24]tetraen]-15′-one 13′,13′-dioxide]
3.14 nM | CC[C@@H]1CC/C=C/[C@H](OCC#N)[C@@H]2CC[C@H]2CN2C[C@@]3(CCCc4cc(Cl)ccc43)COc3ccc(cc32)C(=O)NS1(=O)=O [Example 982, (((1S,3′R,6′R,7′S,8′E,12′R)-6-chloro-12′-ethyl-13′,13′-dioxido-15′-oxo-3,4-dihydro-2H-spiro[naphthalene-1,22′-[20]oxa[13]thia[1,14]diazatetracyclo[14.7.2.0^3,6.0^19,24]pentacosa [8,16,18,24]tetraen]-7′-yl)oxy)acetonitrile]
23.1 nM | CO[C@@H]1/C=C/CCS(=O)(=O)NC(=O)c2ccc3c(c2)N(C[C@@H]2CC[C@H]21)C[C@@]1(CCCc2cc(Cl)ccc21)CO3 [Example 225, (1S,3′R,6′R,7′R,8′E)-6-chloro-7′-methoxy-3,4-dihydro-2H,14′H-spiro[naphthalene-1,21′-[19]oxa[12]thia[1,13]diazatetracyclo[13.7.2.0^3,6.0^18,23]tetracosa [8,15,17,23]tetraen]-14′-one 12′,12′-dioxide]

Same assay, conditions: cell free Mcl-1:Bim TR-FRET, recombinant human Mcl-1 (171-327)

Compound | IC50
CC1(C)C/C=C/[C@H](O)[C@@H]2CC[C@H]2CN2C[C@@]3(CCCc4cc(Cl)ccc43)COc3ccc(cc32)C(=O)NS1(=O)=O [Example 769, (1S,3′R,6′R,7′S,8′E)-6-chloro-7′-hydroxy-11′,11′-dimethyl-3,4-dihydro-2H,14′H-spiro[naphthalene-1,21′-[19]oxa[12]thia[1,13]diazatetracyclo[13.7.2.0^3,6.0^18,23]tetracosa[8,15,17,23]tetraen]-14′-one 12′,12′-dioxide] | 0.971 nM
O=C1NS(=O)(=O)[C@H](CO)CCCC[C@H](O)[C@@H]2CC[C@H]2CN2C[C@@]3(CCCc4cc(Cl)ccc43)COc3ccc1cc32 (single isomer, unassigned) [Example 712] | 0.995 nM
CN[C@H]1CCCCCS(=O)(=O)NC(=O)c2ccc3c(c2)N(C[C@@H]2CC[C@H]21)C[C@@]1(CCCc2cc(Cl)ccc21)CO3 (single isomer, unassigned) [Example 927, (1S,3′R,6′R,7′S)-6-chloro-7′-(methylamino)-3,4-dihydro-2H,15′H-spiro[naphthalene-1,22′-[20]oxa[13]thia[1,14]diazatetracyclo[14.7.2.0^3,6.0^19,24]pentacosa [16,18,24]trien]-15′-one 13′,13′-dioxide or (1S,3′R,6′R,7′R)-6-chloro-7′-(methylamino)-3,4-dihydro-2H,15′H-spiro[naphthalene-1,22′-[20]oxa[13]thia[1,14]diazatetracyclo[14.7.2.0^3,6.0^19,24]pentacosa [16,18,24]trien]-15′-one 13′,13′-dioxide] | 46.2 nM
O=C1NS(=O)(=O)CC/C=C/[C@@H]2CC[C@H]2CN2C[C@@]3(CCCc4cc(Cl)ccc43)COc3ccc1cc32 [Example 825, (1S,3′R,6′S, 7′E)-6-chloro-3,4-dihydro-2H,13′H-spiro[naphthalene-1,20′-[18]oxa[11]thia[1,12]diazatetracyclo[12.7.2.0^3,6.0^17,22]tricosa[7,14,16,22]tetraen]-13′-one 11′,11′-dioxide] | 26.4 nM
O=C1NS(=O)(=O)C/C=C/C[C@H](O)[C@@H]2CC[C@H]2CN2C[C@@]3(CCCc4cc(Cl)ccc43)COc3ccc1cc32 [Example 771, (1S,3′R,6′R,7′S,9′E)-6-chloro-7′-hydroxy-3,4-dihydro-2H,14′H-spiro[naphthalene-1,21′-[19]oxa[12]thia[1,13]diazatetracyclo [13.7.2.0^3,6.0^18,23]tetracosa[9,15,17,23]tetraen]-14′-one 12′,12′-dioxide] | 4.09 nM
O=C1NS(=O)(=O)CCCCC[C@@H](CO)[C@@H]2CC[C@H]2CN2C[C@@]3(CCCc4cc(Cl)ccc43)COc3ccc1cc32 (single isomer, unassigned) [Example 898, (1S,3′R,6′R,7′R)-6-chloro-7′-(hydroxymethyl)-3,4-dihydro-2H,15′H-spiro[naphthalene-1,22′-[20]oxa[13]thia[1,14]diazatetracyclo[14.7.2.0^3,6.0^19,24]pentacosa [16,18,24]trien]-15′-one 13′,13′-dioxide or (1S,3′R,6′R,7′S)-6-chloro-7′-(hydroxymethyl)-3,4-dihydro-2H,15′H-spiro[naphthalene-1,22′[20]oxa[13]thia[1,14]diazatetracyclo[14.7.2.0^3,6.0^19,24]pentacosa[16,18,24]trien]-15′-one 13′,13′-dioxide] | 4.03 nM
C[C@H]1C/C=C/[C@H](O)[C@@H]2CC[C@H]2CN2C[C@@]3(CCCc4cc(Cl)ccc43)COc3ccc(cc32)C(=O)NS1(=O)=O (single isomer, unassigned) [Example 759] | 3.98 nM
COC1C=CCCC(C(C)(C)O)S(=O)(=O)NC(=O)c2ccc3c(c2)N(CC2CCC21)CC1(CCCc2cc(Cl)ccc21)CO3 (single isomer, unassigned) [Example 682] | 1.78 nM
(3R,6R,7R,11E,22S)-6′-chloro-7-hydroxy-3′,4′-dihydro-2′H,15H-spiro[9,20-dioxa-13-thia-1,14-diazatetracyclo[14.7.2.0^3,6.0^19,24]pentacosa-11,16,18,24-tetraene-22,1′-naphthalen]-15-one 13,13-dioxide or (3R,6R,7S,11E,22S)-6′-chloro-7-hydroxy-3′,4′-dihydro-2′H,15H-spiro[9,20-dioxa-13-thia-1,14-diazatetracyclo[14.7.2.0^3,6.0^19,24]pentacosa-11,16,18,24-tetraene-22,1′-naphthalen]-15-one 13,13-dioxide [Example 863] | 5.38 nM
O=C1NS(=O)(=O)CCCCC[C@@H](CO)[C@@H]2CC[C@H]2CN2C[C@@]3(CCCc4cc(Cl)ccc43)COc3ccc1cc32 (single isomer, unassigned) [Example 906, (1S,3′R,6′R,7′R)-6-chloro-7′-(hydroxymethyl)-3,4-dihydro-2H,15′H-spiro[naphthalene-1,22′-[20]oxa[13]thia[1,14]diazatetracyclo[14.7.2.0^3,6.0^19,24]pentacosa [16,18,24]trien]-15′-one 13′,13′-dioxide or (1S,3′R,6′R,7′)-6-chloro-7′-(hydroxymethyl)-3,4-dihydro-2H,15′H-spiro[naphthalene-1,22′-[20]oxa[13]thia[1,14]diazatetracyclo[14.7.2.0^3,6.0^19,24]pentacosa [16,18,24]trien]-15′-one 13′,13′-dioxide] | 9.03 nM
